Measurements: patent US20200096524A1, “PLASMA AND LIVER LIPID SPECIES AS BIOMARKERS OF FATTY LIVER” (École Polytechnique Fédérale de Lausanne (EPFL), priority 2017, published 2020)

Tests used:
[1] = tested on: C57BL/6J mice fed HFHS diet (fatty liver); assay: high-fat high-sucrose (HFHS) diet induced NAFLD mouse model, therapeutic NR supplementation, liver lipidomics; assay type: in vivo
Text: (A-C) C57BL/6J mice: (A) Schematic illustration of the three experimental groups used for validation of the NAFLD signatures; mice on CD (green), mice on HFHS diet from 7-25 weeks (grey), mice starting HFHS diet at 7 weeks and treated with nicotinamide riboside (NR) 9 weeks after the start of HFHS diet till the end of the study (for 9 weeks—therapeutic intervention, magenta). (B) Liver total TAG concentration (normalized to liver weight). […] (D-E) Human subjects: (D) PCA of 55 TAG species measured in human plasma from healthy, steatosis and NASH patients. (E) Plasma total TAG levels in human samples. (F-G) BXDs: (F) Correlation matrix showing the Pearson correlation of Atgl mRNA expression in four different metabolic tissues with the pro- and anti-NAFLD TAG signatures in plasma (left) and liver (right) for both diets. (G) Gene ontology biological processes (GO BP) associated with NAFLD TAG signatures. […] Red and blue cells represent the enriched pathways with the positively (scale bar: log 10 p-value) and negatively (scale bar: −log 10 p-value) correlated liver transcripts respectively. For B and E differences in mean TAG levels were compared using two-sample t tests. *p<0.05, **p<0.01, ***p<0.001.
(A) Levels of pro- and anti-NAFLD signatures in C57BL/6J mice fed on CD, high-fat high-sucrose-diet (HFHS) and HFHS diet supplemented with NR, 9 weeks after the initiation of HFHS diet (HFHS+NR). (B) Pearson correlation matrix of the pro- and anti-NAFLD signatures with NAFLD readouts including the NAS score (NAFLD activity score) and liver NAD+ levels. (C) Levels of plasma NAFLD signatures in human subjects with various degrees of NAFLD. (D) Pearson correlation matrix of the NAFLD signatures with NAFLD readouts in human subjects. (E) Pearson correlation of Atgl expression in subcutaneous WAT with pro- and anti-NAFLD plasma TAG signatures in BXD strains. For mice: n=6-9 per group. For human subjects: n=12, healthy; n=7, steatosis; n=14, early stage NASH; n=11, advanced stage NASH. Differences in mean TAG species were compared using two-sample t tests. *p<0.05, **p<0.01, ***p<0.001.
(A) Correlation diagram (corrgram) showing diet-independent association of lipid species with liver mass. […] Note that the CLs—CL(LOOPo), CL(LLPoP) and CL(OOOP)—are shown in the figure with an additional CL species because the two are isobaric and inseparable chromatographically. (F) Corrgram showing negative correlation of obesity and NAFLD traits with healthy CL species and positive correlation with unhealthy CL species.
It was then tested the relevance of these lipids as signatures of fatty liver in a different mouse model of NAFLD (induced by high-fat high-sucrose (HFHS) diet) and tested whether a NAFLD lowering therapeutic intervention, i.e. nicotinamide adenine dinucleotide (NAD^+) precursor, nicotinamide riboside (NR), impacts these lipid markers. As such, the liver lipids were compared of mice fed CD or HFHS diet for 18 weeks, or mice that were fed HFHS diet supplemented with NR 9 weeks after the start of HFHS diet when they had already developed NAFLD (a therapeutic intervention, HFHS+NR) (FIG. 11A). […] Of all the TAG species measured, only 53% were increased in HFHS cohort while 33% were decreased and 14% unchanged (data not shown). […] Importantly, the pro-NAFLD lipids correlated positively, whereas the anti-NAFLD lipids correlated negatively with clinical NAFLD readouts (FIG. 12B).
It was next tested whether this change in the profile of nine CL species is a general phenomenon in other dietary-induced models of hepatic steatosis and mitochondrial dysfunction and if the profile can be reverted by ameliorating hepato-steatosis via enhancing mitochondrial function. It has been previously shown that nicotinamide riboside (NR) treatment ameliorates high-fat high-sucrose (HFHS) diet induced fatty liver disease by boosting nicotinamide adenine dinucleotide (NAD+) levels and thereby enhancing mitochondrial function. […]

[2] = tested on: high-fat high-sucrose (HFHS) diet induced fatty liver disease; settings: previously shown; by boosting NAD+ levels and enhancing mitochondrial function; cited from earlier work

## NC(=O)c1ccc[n+]([C@@H]2O[C@H](CO)[C@@H](O)[C@H]2O)c1 [NR, nicotinamide riboside]
[1]; C57BL/6J mice, HFHS+NR vs HFHS, FIG. 12A
  liver anti-NAFLD lipids (TAGs 52:5, 52:4, 54:6): increased the anti-NAFLD lipids only to a slight extent
[1]; C57BL/6J mice, HFHS+NR vs HFHS, FIG. 13D
  liver levels of healthy CLs (CL(LLLL), MLCL(LLL)): increased
[1]; C57BL/6J mice, HFHS+NR vs HFHS, FIG. 13E
  liver levels of unhealthy CLs (MLCL(LOO), MLCL(LLO), CL(LOOPo), CL(LLPoP), CL(LOOO), CL(OOOP)): decreased
[1]; C57BL/6J mice, HFHS+NR vs HFHS, NR added 9 weeks after start of HFHS diet, 18 weeks total, FIG. 11B
  liver total TAG concentration: decreased
[1]; C57BL/6J mice, HFHS+NR vs HFHS, lowered: TAGs 54:3, 56:3, 50:2, FIG. 12A
  liver pro-NAFLD lipids (TAGs 52:2, 54:3, 56:3, 50:2): significantly lowered three of the four pro-NAFLD lipids
[1]; steatotic livers of HFHS mice, after NR treatment, FIG. 12B
  liver NAD+ levels: replenished
[2]
  HFHS diet induced fatty liver disease: ameliorates
